Laboratory results taken from US12258308B2, “Benzene derivative” (ONO PHARMACEUTICAL CO., LTD., priority 2018, dated 2025).

Tests used:
rat Schwann cells = assay: In vitro test using Schwann cells (Schwann cell differentiation promotion, MAG immunostaining); type: cell-based; conditions: Rattus norvegicus, 72 h, 3 days, MAG-positive area/cell nuclei; for activity at 0.3 µM: compound 0.3 μmol/L, read-out: Schwann cell differentiation promotion rate (% of vehicle) 0.3 μmol/L; for activity at 3 µM: compound 3 μmol/L, read-out: Schwann cell differentiation promotion rate (% of vehicle) 3 μmol/L
Method: Biological Experiment Example 1: In Vitro Test Using Schwann Cells
• (1) Preparation of rat Schwann cells
A dorsal root ganglion (abbreviated as “DRG”, hereinafter) was excised from a newborn rat aged 0 to 2 days in a clean bench and was collected in DMEM. After the collection, the tube was centrifuged at 400 g, at room temperature for 3 minutes, then a supernatant was discarded, and a 0.25% collagenase solution was added. There resultant solution was incubated at 37° C. for 30 minutes to disperse and separate the excised DRG, and was then centrifuged at room temperature at 400 g for 3 minutes, then a supernatant was discarded, and then 0.25% Trypsin/EDTA and DNaseI were added. After the incubation at 37° C. for 30 minutes, trypsin was inactivated with DMEM supplemented with 10% FBS (10% FBS-DMEM), and centrifugation was carried out at room temperature at 400 g for 3 minutes. A supernatant was discarded, then 10% FBS-DMEM was added to the residue to prepare a cell suspension, and then the cell suspension was allowed to pass through a filter (diameter: 70 μm). The number of cells in the cell suspension which passed through the filter was counted to prepare a solution having a concentration of 2.0×10^5 cells/mL, and the suspension was seeded in a poly-D-lysine-coated 96-well black-clear plate in an amount of 100 μL/well and was then statically cultured in a CO2 incubator under the conditions including 5% of CO2, 95% of air and 37° C.
The culture medium in the cell culture plate was removed by suction using an aspirator, and then DMEM supplemented with 1% dialyzed FBS and 100 μmol/L dibutyryl cyclic AMP was added. Subsequently, a solution of a compound of the present invention dissolved in DMSO was added, and the resultant solution was statically cultured in a C02 incubator under the conditions including 5% of C02, 95% of air and a temperature of 37° C. The final concentration of the compound of the present invention in each well in the cell culture plate was adjusted to 0.1, 0.3, 1 or 3 μmol/L.
Three days after the treatment with the compound, formaldehyde was added to each well in the cell culture plate, and the cell culture plate was allowed to stand at room temperature for 30 minutes or longer. A supernatant was discarded, and then a 0.3% tritonX-100 solution was added to each well, and then the cell culture plate was allowed to stand at room temperature for 20 minutes or longer. A supernatant was discarded, then a 5-μg/mL anti-myeline-associated glycoprotein antibody (anti-MAG antibody) solution was added to each well, and then the cell culture plate was allowed to stand at room temperature for 60 minutes or longer or at 4° C. (acceptable range: 1 to 9° C.) overnight. Each well was washed with a 0.1% tritonX-100 solution three times, then a 10-μg/mL Alexa fluor 488 anti-mouse IgG solution was added to each well, and then the cell culture plate was allowed to stand at room temperature for 60 or longer or at 4° C. overnight. Each well was washed with a 0.1% tritonX-100 solution four times, and then a 1-μg/mL Hoechst33342 solution was added to each well to stain nuclei.
The Mag-positive area and the number of cell nuclei in a fluorescent image were calculated. With respect to each of the MAG-positive area and the number of cell nuclei, the sum total of values obtained in 5 viewing fields/well was determined. The values were employed as a value for the MAG-positive area and a value for the number of cell nuclei, respectively, in each well. Subsequently, a value determined by dividing the value for the MAG-positive area in each well by the value for the number of cell nuclei in the well (i.e., MAG/cell nuclei numerical value) was calculated. The Schwann cell differentiation promotion rate was determined for each of the vehicles in accordance with the following formula. […]

[1] = test system: streptozotocin-induced rat model; assay: Test using streptozotocin-induced rat model (nociceptive threshold, von Frey); type: in vivo; conditions: for Nociceptive threshold improve rate (%) 7 days after withdrawal of administration: 0.3 mg/kg oral once per day day 14 to 28, 35 days after STZ; for Nociceptive threshold improve rate (%) After initial single administration: 14 days after STZ, 2 hours after administration; for Nociceptive threshold improve rate (%) 7 days after start of administration: 21 days after STZ; for Nociceptive threshold improve rate (%) 14 days after start of administration: 28 days after STZ
Method: Biological Experiment Example 2: Test Using Streptozotocin-Induced Rat Model
In order to evaluate the therapeutic effect of each of the compounds of the present invention on diabetic peripheral neuropathy, an in vivo test using a streptozotocin model was carried out.
A model was produced by intravenously administering streptozotocin (abbreviated as “STZ”, hereinafter) one time at a dose amount of 55 mg/kg to a rat.
(2) Measurement of Nociceptive Threshold
The rat was placed in a clear acryl measurement cage once or more times for 10 minutes or longer until the administration of STZ started. In this manner, the rat was acclimated to the measurement environment. Eight von Frey filaments respectively having weights of 0.4, 0.6, 1, 2, 4, 6, 8 and 15 g were applied vertically to a hindpaw of the rat from under a metallic mesh floor. When a quick escape or flinching reaction was observed, it was determined that a positive reaction occurred (i.e., “response was observed”). Each of the compounds of the present invention was administered orally once per day in a period from day 14 to day 28 after the administration of STZ, wherein the dose amount of each of the compounds was 0.03, 0.3 or 3 mg/kg. A nociceptive threshold was measured 2 hours after the administration of each of the compounds of the present invention at the timings of before the administration of STZ, 14 days after the administration of STZ (i.e., the day of the start of the administration of each of the compounds of the present invention), 21 days after the administration of STZ (i.e., 7 days after the start of the administration of the compound), 28 days after the administration of STZ (i.e., 14 days after the start of the administration of the compound), and 35 days after the administration of STZ (i.e., 7 days after the withdrawal of the administration of the compound).
The nociceptive threshold was measured by the up-down method in accordance with the method of Chaplan et. al. (J Neurosci Methods. 1994; 53:55-63). The rate of improvement in the nociceptive threshold was calculated in accordance with the following formula. Nociceptive threshold improve rate (%)=(nociceptive threshold on each of the number of days elapsed after administration of STZ−B)/(A−B)×100 [Math 2] • A: Nociceptive threshold before administration of STZ • B: Nociceptive threshold on 14 days elapsed after administration of STZ (Results)
The results of the nociceptive thresholds and the nociceptive threshold improve rates obtained when each of the compounds of the present invention was administered at a dose amount of 0.3 mg/kg are shown in the FIGURE and Table 2, respectively. With respect to all of the compounds, a potent pain relief effect against peripheral neuropathy was observed. With respect to the compound of Example 11, for example, the improvement in the nociceptive threshold was observed from 7 days after the start of the administration of the compound, and this effect lasted even 7 days after the withdrawal of the administration.

Structure (SMILES)	activity at 0.3 µM (rat Schwann cells) [%]	activity at 3 µM (rat Schwann cells) [%]	Nociceptive threshold improve rate (%) 7 days after withdrawal of administration [1] [%]	Nociceptive threshold improve rate (%) After initial single administration ([1]; 0.3 mg/kg oral once per day) [%]	Nociceptive threshold improve rate (%) 7 days after start of administration ([1]; 0.3 mg/kg oral once per day) [%]	Nociceptive threshold improve rate (%) 14 days after start of administration ([1]; 0.3 mg/kg oral once per day) [%]	Pain relief effect against peripheral neuropathy ([1]; 0.3 mg/kg oral once per day, STZ rat)
O=C(O)CCc1ccccc1OCC[C@@H](O)CCc1cccc(C(O)Cc2ccccc2)c1 (stereo in doubt) [Example 36, 3-[2-[(3S)-3-Hydroxy-5-[3-[(1R)-1-hydroxy-2-phenylethyl]phenyl]pentoxy]phenyl]propanoic acid]	126	732	57.4 ± 10.74	3.6 ± 7.07	57.1 ± 13.78	64.2 ± 13.02	
O=C(O)CCc1ccccc1OCC[C@@H](O)CCc1cccc(C(O)Cc2ccccc2)c1 (stereo in doubt) [Example 37, 3-[2-[(3S)-3-Hydroxy-5-[3-[(1S)-1-hydroxy-2-phenylethyl]phenyl]pentoxy]phenyl]propanoic acid]	171	915	58.7 ± 19.84	−11.9 ± 10.78	61.3 ± 16.58	78.9 ± 9.85	
O=C(O)CCc1ccccc1OCC[C@@H](O)/C=C/c1cccc(NS(=O)(=O)c2ccccc2)c1 [Example 11, 3-[2-[(E,3R)-5-[3-(Benzenesulfonamido)phenyl]-3-hydroxypent-4-enoxy]phenyl]propanoic acid]	114	248	41.1 ± 13.71	−14.6 ± 6.37	26.6 ± 9.30	27.1 ± 8.39	a sustained pain relief effect was confirmed
O=C(O)CCc1ccccc1OCC[C@@H](O)/C=C/c1cccc(NC(=O)c2ccccc2)c1 [Example 12(1), 3-[2-[(E,3R)-5-(3-Benzamidophenyl)-3-hydroxypent-4-enoxy]phenyl]propanoic acid]	120	274	9.1 ± 13.37	6.2 ± 5.72	17.4 ± 17.19	44.6 ± 11.54	
O=C(O)CCc1ccccc1OCC[C@@H](O)/C=C/c1cccc2c1CCN2S(=O)(=O)c1ccccc1 [Example 13(15), 3-[2-[(E,3R)-5-[1-(Benzenesulfonyl)-2,3-dihydroindol-4-yl]-3-hydroxypent-4-enoxy]phenyl]propanoic Acid]	219	326	7.1 ± 9.51	−15.4 ± 14.26	15.9 ± 7.17	8.5 ± 11.50	
O=C(O)CCc1ccccc1OCC[C@@H](O)/C=C/c1ccc2c(c1)CN(S(=O)(=O)c1ccccc1)C2 [Example 13(16), 3-[2-[(E,3R)-5-[2-(Benzenesulfonyl)-1,3-dihydroisoindol-5-yl]-3-hydroxypent-4-enoxy]phenyl]Propanoic Acid]	170	377	−7.8 ± 14.90	−6.0 ± 3.87	25.8 ± 5.28	29.6 ± 8.19	
O=C(O)CCc1ccccc1OCC[C@@H](O)/C=C/c1cccc(NS(=O)(=O)C2CCCC2)c1 [Example 74(13), 3-[2-[(E,3R)-5-[3-(Cyclopentylsulfonylamino)phenyl]-3-hydroxypent-4-enoxy]phenyl]propanoic acid]	79.9	184	76.3 ± 13.41	2.6 ± 1.69	28.3 ± 7.44	57.3 ± 17.63	
O=C(O)CCc1ccccc1OCCC/C=C/c1cccc(NS(=O)(=O)c2ccccc2)c1 [Example 84, 3-[2-[(E)-5-[3-(Benzenesulfonamido)phenyl]pent-4-enoxy]phenyl]propanoic acid]	162	445	58.8 ± 12.51	5.7 ± 2.48	35.0 ± 16.24	49.9 ± 11.50	
